In patent US9867372B2, “Tetrazolinone compound and use of same” (SUMITOMO CHEMICAL COMPANY, LIMITED, priority 2013, dated 2018):

tested on: barley net blotch fungus (Pyrenophora teres); test: barley net blotch control test, foliar spray before inoculation; assay type: in vivo; conditions: 3.1 ppm, sprayed 2 days before inoculation (Test Example 1, Comparative Example 1)

Row | SMILES | area of lesion spots on the treated plant relative to that on an untreated plant [%]
1 | Cn1nnn(-c2ccccc2COc2cccc(-c3ccccc3)n2)c1=O [1-methyl-4-[2-(6-phenylpyridin-2-yloxymethyl)-phenyl]-1,4-dihydrotetrazol-5-one, reference compound] | ≥ 70
2 | Cc1cccc(-n2nnn(C)c2=O)c1COc1cccc(-c2ccccc2)n1 [compound 1, 1-methyl-4-[3-methyl-2-(6-phenylpyridin-2-yloxymethyl)phenyl]-1,4-dihydrotetrazol-5-one] | ≤ 30

tested on: tomato late blight fungus (Phytophthora infestans); test: not given; assay type: in vivo; conditions: 500 ppm, sprayed 2 days before inoculation (Test Example 17)

Row | SMILES | area of lesion spots on the treated plant relative to that on an untreated plant [%]
3 | COc1ccc(-c2cccc(OCc3c(C)cccc3-n3nnn(C)c3=O)c2)cn1 [compound 57] | ≤ 30

tested on: cotton aphid (Aphis gossypii); test: cotton aphid control test on cucumber, spray; assay type: in vivo; conditions: 144 h, 20 mL sprayed, counted after 6 days (Test Example 20)
Procedure: Thirty (30) heads of cotton aphid (Aphis gossypii) (including adults and larvae) were released on the leaves of cucumber (cultivar: […]) grown in a polyethylene cup until the first true leaf was developed. Next day, 20 mL of the above test chemical solution was sprayed. […] Control value (%)={1-(Cb×Tai)/(Cai×Tb)}×100 wherein symbols in the equation represent the followings: Cb: Number of insects before spraying chemical solution in untreated area; Cai: Number of surviving insects in untreated area; Tb: Number of insects before spraying chemical solution in treated area; and Tai: Number of surviving insects in treated area.

Row | SMILES | pest or weed control at 500 ppm [%]
4 | COc1ccc(-c2cccc(OCc3c(OC)cccc3-n3nnn(C)c3=O)c2)cc1 [compound 44] | ≥ 90
5 | COc1cccc(-c2cccc(OCc3c(C)cccc3-n3nnn(C)c3=O)c2F)c1 [compound 111] | ≥ 90
6 | Cc1ccc(OCc2c(C)cccc2-n2nnn(C)c2=O)cc1-c1ccc(F)cc1 [compound 119] | ≥ 90
7 | Cc1ccc(OCc2c(C)cccc2-n2nnn(C)c2=O)cc1-c1ccc(Cl)cc1 [compound 122] | ≥ 90
8 | Cc1cccc(-n2nnn(C)c2=O)c1COc1cc(-c2ccccc2)ccc1Cl [compound 128] | ≥ 90
9 | Cc1cccc(-n2nnn(C)c2=O)c1COc1cc(-c2ccc(Cl)cc2)ccc1F [compound 134] | ≥ 90
10 | COc1cccc(-c2ccc(Cl)c(OCc3c(C)cccc3-n3nnn(C)c3=O)c2)c1 [compound 135] | ≥ 90
11 | COc1ccc(-c2cc(OCc3c(C)cccc3-n3nnn(C)c3=O)ccc2OC)cn1 [compound 139] | ≥ 90
12 | COc1ccc(-c2cc(C)cc(OCc3c(C)cccc3-n3nnn(C)c3=O)c2)cc1 [compound 142] | ≥ 90
13 | Cc1cc(OCc2c(C)cccc2-n2nnn(C)c2=O)cc(-c2ccccc2)c1 [compound 143] | ≥ 90
14 | Cc1cccc(-n2nnn(C)c2=O)c1COc1cccc(-c2ccc3ocnc3c2)c1 [compound 159] | ≥ 90
15 | COc1ccc(-c2cccc(OCc3c(C)cccc3-n3nnn(C)c3=O)c2)nn1 [compound 165, 1-{2-[3-(3-methoxypyridazin-6-yl)phenoxymethyl]-3-methylphenyl}-4-methyl-1,4-dihydrotetrazol-5-one] | ≥ 90

tested on: common cutworm (Spodoptela litura); test: common cutworm larvae mortality test, treated artificial diet; assay type: in vivo; conditions: 500 ppm, 2 mL on Insecta LF, third instar larvae, after 6 days (Test Example 25)

Row | SMILES | mortality [%]
16 | COc1ccccc1-c1cccc(OCc2c(C)cccc2-n2nnn(C)c2=O)c1 [compound 52] | 100

tested on: (Adoxophyes orana); test: Adoxophyes orana larvae mortality test, treated artificial diet; assay type: in vivo; conditions: 500 ppm, 1 mL on Silkmate 2S, first instar larvae, after 7 days (Test Example 26)

Row | SMILES | mortality [%]
17 | COc1ccccc1-c1cccc(OCc2c(C)cccc2-n2nnn(C)c2=O)c1 [compound 52] | 100
